One assay addresses 403 nonmutant kinases. In words: KINOMEscan scanMAX kinome-wide binding scan, interactions mapped. The settings on record: for Interactions mapped: total = 403 non-mutant kinases, threshold < 35% of control. How it is done:
(§1) The kinome-wide binding assay was performed by Eurofins Discovery using the scanMAX screening platform. More information can be found on the Eurofins Discovery Web site.

A further assay has as its target T1, AURKA (Homo sapiens, UniProt O14965).
T1 sequence (O14965 1-403): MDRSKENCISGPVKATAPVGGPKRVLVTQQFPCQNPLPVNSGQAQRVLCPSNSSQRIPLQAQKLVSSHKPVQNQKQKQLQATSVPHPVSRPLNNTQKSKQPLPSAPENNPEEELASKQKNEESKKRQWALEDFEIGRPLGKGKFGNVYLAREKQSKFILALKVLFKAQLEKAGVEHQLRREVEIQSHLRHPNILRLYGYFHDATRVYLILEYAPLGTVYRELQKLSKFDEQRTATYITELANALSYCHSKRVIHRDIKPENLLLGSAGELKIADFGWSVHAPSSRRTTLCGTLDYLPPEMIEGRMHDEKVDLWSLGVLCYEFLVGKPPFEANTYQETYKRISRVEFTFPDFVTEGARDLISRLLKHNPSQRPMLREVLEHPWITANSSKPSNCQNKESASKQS
In words: KINOMEscan scanMAX. It counts as binding. Further details: purchased Eurofins Discovery. Conditions: read-out: Percent Control. How it is done:
as §1

A further assay relates to IMR-32 proteome. The experiment in a line: LC-MS/MS proteome profiling. In kind it is cell-based, Homo sapiens. As for the experimental part:
IMR-32 cells were seeded in T-25 flasks at a density of 1.7 million cells/flask and treated the next day with DMSO (negative control), SK5527 (500 nM) or MK-5108 (500 nM) for 3 or 24 h (data for MK-5108 not discussed in this manuscript). Cell pellets were harvested at the respective time points, lysed, and the concentration of the obtained protein lysates measured as previously described. Details on further sample preparation, LC–MS/MS, and data analysis can be found in the Supporting Information. The LC–MS/MS proteomics data have been deposited to the ProteomeXchange Consortium via the PRIDE partner repository with the data set identifier PXD061539.
Supplementary Methods 1 – LC-MS/MS proteomics
From each sample, 100 µg of protein was isolated, the volumes were equalized with water and SDS and TEAB were added to a final concentration of 5% and 50 mM, respectively. Proteins were reduced and alkylated by addition of 10 mM Tris(2-carboxyethyl)phosphine hydrochloride and 40 mM chloroacetamide and incubation for 30 minutes at 25°C in the dark. Phosphoric acid was added to a final concentration of 1.2%, and samples were subsequently diluted 7-fold with binding buffer containing 90% methanol in 100 mM TEAB, pH 7.55. The samples were loaded on the 96-well S-Trap™ plate (Protifi), placed on top of a deepwell plate, and centrifuged for 2 min at 1,500 x g at RT. […]

Take `Cc1cc(Nc2ccc(F)c(CC3(C(=O)N4CCC(F)(CN5CCN(c6ccc(N7CCC(=O)NC7=O)cn6)CC5)CC4)CCN(Cc4cccc(Cl)c4F)CC3)n2)n[nH]1` [SK5527]: the “kinases significantly engaged (in words)” value on 403 nonmutant kinases (100 nM) is “only AURKA and TrKA”. Besides, the Interactions mapped in the assay with 403 nonmutant kinases (100nM) is reported as 2; with 403 nonmutant kinases (1000nM), 10. The “nonmutant kinases bound in addition to AURKA, out of 403” value with 403 nonmutant kinases (1000 nM) is 9. Also, the remaining binding at 0.1 µM on AURKA (100 nM) was found to be 0.8%. Further, the remaining binding at 1 µM at AURKA (1000 nM) was 0%. Moreover, the “CRBN neosubstrates (GSPT1, CSNK1A1, ZFP91, SALL4, ZNF654, ZNF787, E4F1, PATZ1) (in words)” value in the assay on IMR-32 proteome (IMR-32) is given as “not significantly downregulated”. Moreover, the “degradation selectivity profile (in words)” value in the assay on IMR-32 proteome (IMR-32, 3h of treatment) is “AURKA as the only significantly downregulated protein”.

(Values after publication PMC12670405, “Second-Generation AURKA-Targeting PROTACs: Structural Optimization toward in Vivo Degradation in Neuroblastoma” (Journal of Medicinal Chemistry, 2025).)
